This is an account of results in patent US10555987B2, “GHRH agonists for the treatment of ischemic disorders” (UNIVERSITY OF MIAMI, priority 2012, dated 2020).

The test system of assay [1] is GH release. The assay can be described thus: In vivo endocrine activity, GH release after subcutaneous administration (Table 9). The following applies: rat, subcutaneous (s.c.) injection. How it is done:
Subcutaneous Administration. Adult male rats were used and anesthetized with pentobarbital (6 mg/100 g, b.w.), by i.p. injection. […] Blood samples were taken from the jugular vein 5, 15 and/or 30 minutes after the injection. The blood samples were centrifuged, plasma was removed and the GH level was measured byELISA. The results are summarized in terms of potency in Table 9.

In assay [2] the test system is GH release. The assay can be described thus: GH releasing potency in vivo, subcutaneous administration (Example 14, Table 12). The arrangement: species or system rat. The following applies: s.c.; for Serum GH level at selected time after injection (ng/ml), 0 min / Serum GH level at selected time after injection (ng/ml), 15 min / Serum GH level at selected time after injection (ng/ml), 30 min: male rats, dose 3 μg/kg, mean ± SEM. As for the experimental part: Male Sprague-Dawley rats, weighing 200-250 g, were purchased from Charles River Laboratory (Wilmington, Mass.) and used for experiments. All animal procedures were approved by the Veterans Affairs Animal Care and Use Committee and were conducted in accordance with additional institutional guidelines as well. Briefly, groups of 5-6 animals were used in each experiment. The rats were anesthetized with 50 mg/kg of sodium pentobarbital (Nembutal, Lundbeck Inc., Deerfield, Ill.). Twenty min after inducing anesthesia, GHRH(1-29)NH2, JI-38, or new analogs were injected into the animals intravenously (i.v.) or subcutaneously (s.c.). The peptides were dissolved in 0.01 M acetic acid to get 1 μg/μl stock solution, and then diluted with 5% mannitol. Control rats received 5% mannitol only. Blood samples were collected from the jugular vein at selected times and were used for serum preparation. Concentrations of GH in rat sera were determined by ELISA. The relative potencies of tested peptides were calculated using GHRH(1-29)NH2 and JI-38 for comparison, whose potency was defined as 1. The equivalent dosage of GHRH(1-29)NH2 to reach the same level of serum growth hormone release after injection of the specific tested peptide was determined from a GHRH(1-29)NH2 standard curve using Origin 6.0 software. […] Serum GH was determined using the rat Growth Hormone ELISA kit (ALPCO Diagnostics, Mill Valley, Calif.) according to the manufacturer's instruction. Absorbance at 405 nm was measured by a Victor 3 Multi-label Counter (Perkin-Elmer, Waltham, Md.).

The target of assay [3] is T1, GHRH receptor (Homo sapiens, UniProt Q02643).
T1 sequence (Q02643 23-423): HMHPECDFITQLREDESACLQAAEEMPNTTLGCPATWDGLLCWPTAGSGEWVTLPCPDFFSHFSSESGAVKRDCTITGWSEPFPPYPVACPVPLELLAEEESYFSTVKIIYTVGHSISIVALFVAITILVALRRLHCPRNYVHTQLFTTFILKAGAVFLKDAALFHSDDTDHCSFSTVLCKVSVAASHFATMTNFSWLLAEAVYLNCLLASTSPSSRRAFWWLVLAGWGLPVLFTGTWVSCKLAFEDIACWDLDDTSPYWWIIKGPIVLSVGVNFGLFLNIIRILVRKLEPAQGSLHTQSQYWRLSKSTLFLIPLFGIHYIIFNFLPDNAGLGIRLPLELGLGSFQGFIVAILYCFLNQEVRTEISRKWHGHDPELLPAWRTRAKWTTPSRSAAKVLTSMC
As to the kind of experiment: Receptor binding in vitro, 125I-labeled [His1,Nle27]-hGHRH(1-32)NH2, membrane receptors of human anterior pituitary cells (Table 14). The following applies: for Relative affinity (Binding potency) compared to JI-38: JI-38 = 1; for Relative affinity (Binding potency) compared to hGHRH(1-29): hGHRH(1-29)NH2 = 1.
Source text: Normal human pituitary was purchased from the National Hormone and Peptide Program (UCLA Medical Center, Torrance, Calif.).

The target in assay [4] is T1, GHRH receptor. The assay can be described thus: GHRH receptor binding, competition with 125I-labeled JV-1-42, human pituitary membrane homogenates (Table 7). Further details: Normal human pituitaries were purchased from the National Hormone and Peptide Program; tissue National Hormone and Peptide Program (A.F. Parlow, Harbor-UCLA Medical Center, Torrance, Calif.); host or cells: normal human pituitary, membrane fraction. The following applies: JI-38 = 1, Table 7. The source says: Normal human pituitaries were purchased from the National Hormone and Peptide Program (A.F. Parlow, Los Angeles, County Harbor-UCLA Medical Center, Torrance, Calif.).

Marks after values point to notes of the source that are not given here. Non-standard residues stand in square brackets, D forms with d. Residues, ends and D or L forms follow the SMILES beside them. *: point of attachment. Desaminotyrosyl = O=C(CCc1ccc(O)cc1)*; NMeY = CN[C@@H](Cc1ccc(O)cc1)C(=O)O; Nle = CCCC[C@H](N)C(=O)O; Orn = NCCC[C@H](N)C(=O)O; Abu = CC[C@H](N)C(=O)O; Ava = NCCCCC(=O)O

As to `CCCC[C@H](NC(=O)[C@@H](NC(=O)[C@H](CC(=O)O)NC(=O)[C@H](CCC(N)=O)NC(=O)[C@H](CC(C)C)NC(=O)[C@H](CC(C)C)NC(=O)[C@H](CCCN)NC(=O)[C@H](CCCNC(=N)N)NC(=O)[C@H](C)NC(=O)[C@H](CO)NC(=O)[C@H](CC(C)C)NC(=O)[C@H](CCC(N)=O)NC(=O)[C@H](CC)NC(=O)[C@H](CC(C)C)NC(=O)[C@@H](NC(=O)[C@H](CCCN)NC(=O)[C@H](CCCNC(=N)N)NC(=O)[C@H](Cc1ccc(O)cc1)NC(=O)[C@H](CO)NC(=O)[C@H](CCC(N)=O)NC(=O)[C@@H](NC(=O)[C@H](Cc1ccccc1)NC(=O)[C@@H](NC(=O)[C@H](C)NC(=O)[C@H](CC(=O)O)NC(=O)[C@H](C)NC(=O)[C@H](Cc1ccc(O)cc1)NC)[C@@H](C)CC)[C@@H](C)O)C(C)C)[C@@H](C)CC)C(=O)N[C@@H](CO)C(=O)N[C@@H](CCCNC(=N)N)C(=O)NC` [Peptide P-27405, [N—Me-Tyr^1, Gln^8, Orn^12, Abu^15, Orn^21, Nle^27]hGHRH(1-29)NH—CH3] (H-[NMeY]ADAIFTQSYR[Orn]VL[Abu]QLSAR[Orn]LLQDI[Nle]SR-NHMe), the “GH releasing potency relative to JI-38 (=1)” value in the assay with GH release [1] (15 min after) is recorded as 1.60. Also, the “GH releasing potency relative to JI-38 (=1)” value with GH release [1] (30 min after) is 1.13. In addition, in the assay on GH release [2], the “Serum GH level at selected time after injection (ng/ml), 0 min” value is 21.8 ± 5.9 ng/mL; the “Serum GH level at selected time after injection (ng/ml), 15 min” value (shortened to “Serum GH level at selected time … 15 min”) amounted to 227.9 ± 10.5 ng/mL; the “Serum GH level at selected time after injection (ng/ml), 30 min” value (“Serum GH level at selected time … 30 min” below) was found to be 143.3 ± 6.1 ng/mL; the “Relative potency compared to GHRH(1-29), 15 min” value worked out at 62.3. Moreover, in the assay with GH release [2], the “Relative potency compared to JI-38, 15 min” value amounted to 0.99; the “Relative potency compared to GHRH(1-29), 30 min” value came out at 135.2; the “Relative potency compared to JI-38, 30 min” value was 1.21. Besides, at GHRH receptor [3], the “Relative affinity (Binding potency) compared to JI-38” value (from here on “Relative affinity … to JI-38”) was 1.09 and the “Relative affinity (Binding potency) compared to hGHRH(1-29)” value (shortened to “Relative affinity … to hGHRH(1-29)”) is recorded as 3.04. For the same molecule, the “Relative affinity (Binding potency) vs JI-38” value (from here on “Relative affinity … vs JI-38”) on GHRH receptor [4] amounted to 4.03.
For `CCCC[C@H](NC(=O)[C@@H](NC(=O)[C@H](CC(=O)O)NC(=O)[C@H](CCC(N)=O)NC(=O)[C@H](CC(C)C)NC(=O)[C@H](CC(C)C)NC(=O)[C@H](CCCN)NC(=O)[C@H](CCCNC(=N)N)NC(=O)[C@H](C)NC(=O)[C@H](CO)NC(=O)[C@H](CC(C)C)NC(=O)[C@H](CCC(N)=O)NC(=O)[C@H](CC)NC(=O)[C@H](CC(C)C)NC(=O)[C@@H](NC(=O)[C@H](CCCN)NC(=O)[C@H](CCCNC(=N)N)NC(=O)[C@H](Cc1ccc(O)cc1)NC(=O)[C@H](CO)NC(=O)[C@H](CCC(N)=O)NC(=O)[C@@H](NC(=O)[C@H](Cc1ccccc1)NC(=O)[C@@H](NC(=O)[C@H](C)NC(=O)[C@H](CC(=O)O)NC(=O)[C@H](C)NC(=O)CCc1ccc(O)cc1)[C@@H](C)CC)[C@@H](C)O)C(C)C)[C@@H](C)CC)C(=O)N[C@@H](CC(=O)O)C(=O)N[C@@H](CCCNC(=N)N)C(=O)NCCCCC(N)=O` [Peptide P-22327, [Dat^1, Gln^8, Orn^12, Abu^15, Orn^21, Nle^27, Asp^28, Apa^30]hGHRH(1-30)NH2] (Desaminotyrosyl-ADAIFTQSYR[Orn]VL[Abu]QLSAR[Orn]LLQDI[Nle]DR[Ava]-NH2), in the assay on GH release [1] (15 min after), the “GH releasing potency relative to JI-38 (=1)” value is 1.15. Also, the “GH releasing potency relative to JI-38 (=1)” value in the assay on GH release [1] (30 min after) was 1.30. In the assay with GH release [2], the “Serum GH level at selected time after injection (ng/ml), 0 min” value was found to be 31.5 ± 3.4 ng/mL; the “Serum GH level at selected time … 15 min” value amounted to 258.7 ± 31.1 ng/mL; the “Serum GH level at selected time … 30 min” value worked out at 138 ± 27.9 ng/mL; the “Relative potency compared to GHRH(1-29), 15 min” value worked out at 73.5. In the assay on GH release [2], the “Relative potency compared to JI-38, 15 min” value stood at 1.16; the “Relative potency compared to GHRH(1-29), 30 min” value came out at 126.5; the “Relative potency compared to JI-38, 30 min” value is reported as 1.16. On GHRH receptor [3], the “Relative affinity … to JI-38” value worked out at 1.34 and the “Relative affinity … to hGHRH(1-29)” value was 3.75. In addition, the “Relative affinity … vs JI-38” value at GHRH receptor [4] is on record as 2.18.
On to `CCCC[C@H](NC(=O)[C@@H](NC(=O)[C@H](CC(=O)O)NC(=O)[C@H](CCC(N)=O)NC(=O)[C@H](CC(C)C)NC(=O)[C@H](CC(C)C)NC(=O)[C@H](CCCN)NC(=O)[C@H](CCCNC(=N)N)NC(=O)[C@H](C)NC(=O)[C@H](CO)NC(=O)[C@H](CC(C)C)NC(=O)[C@H](CCC(N)=O)NC(=O)[C@H](CC)NC(=O)[C@H](CC(C)C)NC(=O)[C@@H](NC(=O)[C@H](CCCN)NC(=O)[C@H](CCCNC(=N)N)NC(=O)[C@H](Cc1ccc(O)cc1)NC(=O)[C@H](CO)NC(=O)[C@@H](NC(=O)[C@@H](NC(=O)[C@H](Cc1ccccc1)NC(=O)[C@@H](NC(=O)[C@H](C)NC(=O)[C@H](CC(=O)O)NC(=O)[C@@H](C)NC(=O)[C@H](Cc1ccc(O)cc1)NC)[C@@H](C)CC)[C@@H](C)O)[C@@H](C)O)C(C)C)[C@@H](C)CC)C(=O)N[C@@H](CC(=O)O)C(=O)N[C@@H](CCCNC(=N)N)C(=O)NC` [Peptide P-27410, [N—Me-Tyr^1, D-Ala^2, Thr^8, Orn^12, Abu^15, Orn^21, Nle^27, Asp^28]hGHRH (1-29)NH—CH3] (H-[NMeY][dA]DAIFTTSYR[Orn]VL[Abu]QLSAR[Orn]LLQDI[Nle]DR-NHMe), for which, in the assay on GH release [2], the “Serum GH level at selected time after injection (ng/ml), 0 min” value stood at 34.1 ± 1.2 ng/mL; the “Serum GH level at selected time … 15 min” value is 334.0 ± 54.0 ng/mL; the “Serum GH level at selected time … 30 min” value came to 250.4 ± 28.6 ng/mL; the “GH-releasing potency after s.c. administration (in words)” value is listed as “significantly higher potencies at 30 minutes than at 15 minutes”. Besides, in the assay on GH release [2], the “Relative potency compared to GHRH(1-29), 15 min” value is listed as 102.5; the “Relative potency compared to JI-38, 15 min” value is 1.58; the “Relative potency compared to GHRH(1-29), 30 min” value worked out at 363.2; the “Relative potency compared to JI-38, 30 min” value is 3.25*. Also, on GHRH receptor [3], the “Relative affinity … to JI-38” value is reported as 2.14 and the “Relative affinity … to hGHRH(1-29)” value came to 5.98. The “Relative affinity … vs JI-38” value at GHRH receptor [4] stood at 5.24.
